The text below walks through data of patent publication US20140248634A1, “VIMENTIN AS A BIOMARKER FOR THE PROGRESSION OF MYELOPROLIFERATIVE NEOPLASMS” (University of Florida Research Foundation, priority 2011, published 2014).

Entries after “also recorded” stand apart in the source; their conditions may differ. Starred links: 1 amine or outer side, 2 acyl side, 3 side chain; linkers in the order of their positions; H or OH if unused. Non-standard residues stand in square brackets, D forms with d. Residues, ends and D or L forms follow the SMILES beside them. *: point of attachment. hPhe = N[C@@H](CCc1ccccc1)C(=O)O; Morpholide = C1CN(*)CCO1; Cbz = O=C(OCc1ccccc1)*; CO = O=C([*:1])[*:2]; CH2F = FC*

In experiment [1] the test system is PARP. As to the kind of experiment: Western blotting of HEL cell lysates for PARP cleavage. The format is cell-based, human. The conditions noted are these: HEL cells, pretreated 4 hours, then 30 μM and 60 μM G6 for 24 hours. The procedure: Cells (˜107) were washed with two volumes of ice-cold PBS and then lysed in 0.8 ml of ice-cold RIPA buffer (20 mM Tris pH 7.5, 10% glycerol, 1% Triton X-100, 1% deoxycholic acid, 0.1% SDS, 2.5 mM EDTA, 50 mM NaF, 10 mM Na4P2O7, 4 mM benzamidine, and 10 μg/mL aprotinin). Protein concentrations in the whole cell lysates were determined using a Bradford assay (Bio-Rad). Cell lysates were then resuspended in SDS sample buffer. Whole cell lysates (˜30 μg) were separated by SDS-PAGE and then transferred onto nitrocellulose membranes for analysis by western blotting.
(§1) Nitrocellulose membranes were first blocked with 5% milk/TBST solution at room temperature and then probed first with the different indicated primary antibodies overnight at 4° C. followed by the respective secondary antibodies (1:4000, GE Healthcare). The immuno-reactive bands were then visualized using the enhanced chemiluminescence system (Western Lightning Ultra, Perkin-Elmer). The following antibodies were used at the indicated dilutions: vimentin (Abcam and BD Biosciences, each at 1:500), STAT1 (Santa Cruz Biotechnology, 1:1000), and β-actin (Cell Signaling, 1:500).

The subject of experiment [2] is vimentin. The experiment in a line: Western blotting of HEL cell lysates with anti-vimentin antibody. It is filed as cell-based, human. The conditions noted are these: HEL cells; for effect on full-length vimentin, Jak2 vs non-Jak2 inhibitors: increasing concentrations; for cleavage of vimentin intermediate filaments in the viability samples: 30 μM G6 or 2% IDPN, 0, 6, 12, 24 or 48 hours. The procedure:
Protein concentrations in the whole cell lysates were determined using a Bradford assay (Bio-Rad). Cell lysates were then resuspended in SDS sample buffer. Whole cell lysates (˜30 μg) were separated by SDS-PAGE and then transferred onto nitrocellulose membranes for analysis by western blotting.
as §1

In experiment [3] the test system is HEL cells. As to the kind of experiment: Cell proliferation assay (trypan blue exclusion, hemocytometer). It is filed as cell-based, human. Particulars: 30 μM G6 or 2% IDPN, 0, 6, 12, 24 or 48 hours, vs DMSO. The procedure:
HEL cells were plated in 96-well plates and treated with either 0.25% DMSO, 30 μM G6 or 2% IDPN for the indicated periods of time. Cell viability was then assessed for each sample by trypan blue exclusion staining and hemocytometer.

Experiment [4] has as its system vimentin. As to the kind of experiment: 2-D differential in gel electrophoresis (2-D DIGE) of HEL cell proteins. The format is cell-based, human. Particulars: HEL cells, 25 μM, 12 hours, vs 0.25% DMSO. The procedure:
HEL cells treated either with vehicle control DMSO or 25 μM G6 for 12 hours. The cell pellets were resuspended in ice cold buffer containing 0.3% SDS, 20 mM Tris pH 8.0, 100 mM DTT, 10 μl protease inhibitor cocktail III (Calbiochem), 5 mM MgCl2 and 250 units of benzonase. The cell suspension was homogenized by sonication. Protein was precipitated with 9 volumes of ice cold 10% trichloroacetic acid (TCA) in acetone overnight at 4° C. Precipitated proteins were then dissolved in solubilization buffer (7 M urea, 2 M thiourea, 4% CHAPS, 0.2% SDS and 20 mM Tris, pH 8.0). After centrifugation at 43,000 rpm for 30 min, solubilized protein in the supernatant was quantified using the EZQ Protein Assay Kit (Invitrogen). Proteins (100 μg per sample) were minimally labeled with CyDye (GE Healthcare) as per the manufacturer's protocol. An internal standard, which is loaded on every gel, was created by mixing equal amounts of protein from all samples. Proteins from the DMSO treated samples were labeled with Cy3 (green) and the G6 treated samples were labeled with Cy5 (red). The internal standard was labeled with Cy2 (blue). […] The digital image was then analyzed with DeCyder 2D version 7.0 GE Healthcare). Information from replicate gels was analyzed with BVA Module (Biological Variation Analysis). […]

Experiment [5] deals with Jak2-V617F-mediated HEL cell proliferation. The conditions noted are these: previously demonstrated (14,15); cited from earlier work.
Experiment [6] relates to vimentin protein. As to the kind of experiment: Xenograft model of Jak2-V617F expressing HEL cells in NOD/SCID mice, bone marrow anti-vimentin immunohistochemistry. It is filed as in vivo. Particulars: NOD/SCID mice with HEL cells, 21 days. The source says: The xenograft model of Jak2-V617F expressing HEL cells in NOD/SCID mice has been described previously (15). Briefly, 3 months old NOD/SCID mice were randomized into 5 groups (n=6 per group). […] All other groups received a single tail vein injection of 2×10^6 Jak2-V617F positive HEL cells. Three weeks after HEL cell injection, the mice developed symptoms of a fully penetrant bone marrow malignancy. The mice then began receiving intraperitoneal injections of either vehicle control (DMSO) or G6 at doses of 0.1, 1, and 10 mg/kg/day for the next 21 days. At the end of the three week treatment period, all groups of mice were euthanized and bone marrow tissues were fixed in 10% neutral-buffered formalin and embedded in paraffin.
Paraffin embedded bone marrow sections from each treatment group were analyzed by antivimentin immunohistochemistry. Antigen retrieval was carried out first by microwaving at 95° C. for 20 min in 1 mM EDTA-NaOH solution, pH 8.0. The section were then cooled, blocked with Protein Block (DAKO), and incubated with antivimentin antibody (Abcam, 1:100) for 2 hours at room temperature. Antigen-antibody comeplexes were detected using biotinylated secondary antibodies and streptavidin-peroxidase substrate (DAKO). Stained sections were then analyzed via a standard light microscope (Nikon) at 40× and 100× magnifications.

Experiment [7] relates to caspase 3/7. Particulars: HEL cells, previously showed (15); cited from earlier work.
Experiment [8] deals with vimentin intermediate filaments. As to the kind of experiment: Indirect immunofluorescence of vimentin in HEL cells. The format is cell-based, human. The conditions noted are these: 25 μM, 24 and 36 hr. The procedure: HEL cells were cultured in RPMI in 100 mm dishes and treated with 25 μM G6 for the indicated periods of time. Following treatment, the cells were centrifuged, washed and resuspended in 1×PBS. Cells were then plated onto poly-L-lysine coated 8-chamber slides (Santa Cruz Biotechnology) and fixed at −20° C. in a mixture of 50% methanol and 50% acetone for 10 minutes. The fixed cells were then permeabilized with 0.2% Triton X-100 and blocked with 5% goat serum for 30 minutes at room temperature. The samples were then incubated overnight at 4° C. with a primary antibody of mouse anti-vimentin (BD Biosciences, 1:100). The next day, the cells were washed 4× with PBS at room temperature. The samples were then incubated with a FITC-conjugated anti-mouse secondary antibody (Santa Cruz Biotechnology) for one hour at room temperature. The cells were again washed with PBS, mounted with UltraCruz DAPI containing mounting media (Santa Cruz Biotechnology) and sealed with a cover slip. These cells were imaged using a 100× objective on an inverted fluorescence microscope (Olympus).

Turning to `COC(=O)C[C@H](NC(=O)[C@H](C)NC(=O)[C@@H](NC(=O)OCc1ccccc1)C(C)C)C(=O)CF` [zVAD-fmk, Z-VAD (OMe)-FMK] (Cbz-Val-Ala-Asp(OMe)-CH2F), the “effect of pretreatment on G6-induced cleavage of PARP” value in experiment [1] was “able to block the G6-induced cleavage of PARP”. The “effect of pretreatment on G6-induced cleavage of vimentin” value (shortened to “effect of pretreatment … of vimentin”) in experiment [2] (pretreated 4 hours, then 30 μM and 60 μM G6 for 24 hours) is given as “unable to prevent G6-induced cleavage of vimentin”.
Consider `CNc1ccc2oc(C[C@H]3O[C@@]4(CC[C@H]3C)O[C@H]([C@H](C)C(=O)c3ccc[nH]3)[C@H](C)C[C@H]4C)nc2c1C(=O)O` [Compound A23187], for which the cleavage of vimentin result in experiment [2] (10 μM, increasing periods of time) was “sufficient to induce cleavage of intermediate filament protein vimentin”.
On to `COc1cccc(-c2cc(=O)c3ccccc3o2)c1N` [PD98059], for which the “effect on full-length vimentin, Jak2 vs non-Jak2 inhibitors” value (from here on “effect … vs non-Jak2 inhibitors”) in experiment [2] (24 hours) was “no effect on full-length vimentin”.
Same read-out and setting: next, `CC(C)(C)n1nc(-c2ccc(Cl)cc2)c2c(N)ncnc21` [PP2]: “no effect on full-length vimentin”; Jak Inhibitor I: “induced cleavage of vimentin dose-dependently”.
Turning to `CC(C)[C@H](NC(=O)N1CCOCC1)C(=O)N[C@@H](CCc1ccccc1)C(=O)CF` [Calpain Inhibitor V, Mu-Val-HPh-CH2F] ({Morpholide-CO}-Val-[hPhe]-CH2F), in experiment [2] (calpain inhibitor pretreatment 4 hours, then increasing doses of G6 for 24 hours), the “effect of pretreatment … of vimentin” value was “prevented G6-induced cleavage of vimentin in a dose-dependent manner”.
`CC(=O)OCOC(=O)CN(CC(=O)OCOC(C)=O)c1ccccc1OCCOc1ccccc1N(CC(=O)OCOC(C)=O)CC(=O)OCOC(C)=O` [BAPTA-AM]: the “effect of pretreatment … of vimentin” value in experiment [2] (10 μM BAPTA-AM 2 hours, then 30 μM G6 for 24 hours) was “sufficient to protect vimentin from G6-induced cleavage”.
`N#C/C(=C/c1ccc(O)c(O)c1)C(=O)NCc1ccccc1` [AG490]: the “effect … vs non-Jak2 inhibitors” value in experiment [2] (24 hours) is “induced cleavage of vimentin dose-dependently”.
On to `N#CCCNCCC#N` [IDPN, 3′,3′-iminodipropiontrile, reference compound], for which the viable cell numbers entry in experiment [3] is listed as “time dependently decreased viable cell numbers”. Further, in experiment [2], the “cleavage of vimentin intermediate filaments in the viability samples” value is “time-dependent cleavage of vimentin intermediate filaments”.
Take `C[C@@H]1C[C@@H]([C@H](O)CC2CC(=O)NC(=O)C2)C(=O)[C@@H](C)C1` [cycloheximide]: the “effect of pretreatment … of vimentin” value in experiment [2] (cycloheximide pretreatment 4 h, then increasing concentrations of G6 for 24 hours) is “not be blocked by pretreatment with cycloheximide”.
`CCC(=C(CC)c1ccc(O)c(CN(CC)CC)c1)c1ccc(O)c(CN(CC)CC)c1` [Compound G6, 4,4′-(hex-3-ene-3,4-diyl)bis(2-((diethylamino)methyl)phenol)]: the viable cell numbers result in experiment [3] is recorded as “time dependently decreased viable cell numbers”. Further, in experiment [4], the “vimentin protein expression (2-D DIGE)” value was “down regulated; also recorded: significantly downregulated”. Further, the “Jak2-V617F-mediated HEL cell proliferation” value in experiment [5] was “inhibits Jak2-V617F-mediated HEL cell proliferation”. Also, the “apoptosis of HEL cells” value in experiment [5] is “induces apoptosis”. Moreover, the “full-length vimentin (western blot)” value in experiment [2] (25 μM, 24 h, vs DMSO) is recorded as “disappearance of full-length vimentin”. Also, the “cleavage of full-length vimentin as a function of time” value in experiment [2] (25 μM, varying lengths of time) is recorded as “cleaved into low molecular weight fragments”. The “cleavage of vimentin intermediate filaments in the viability samples” value in experiment [2] is recorded as “time-dependent cleavage of vimentin intermediate filaments”. Further, the “effect … vs non-Jak2 inhibitors” value in experiment [2] (24 hours) is listed as “induced cleavage of vimentin dose-dependently”. Further, the “cleavage of full-length vimentin as a function of dose” value in experiment [2] (increasing doses, 24 hours) is given as “cleaved into low molecular weight fragments”. The “specificity for vimentin over other cytoskeletal proteins (β-actin reprobe)” value in experiment [2] (same samples reprobed with anti-β-actin antibody) was “specificity of G6 for vimentin over other cytoskeletal proteins such as β-actin”. Besides, the “bone marrow vimentin protein level vs DMSO treated mice” value in experiment [6] (0.1 mg/kg/day intraperitoneal) is reported as “did not produce any observable change”; in experiment [6] (1 mg/kg/day intraperitoneal) it was “clearly reduced the levels of vimentin protein”; in experiment [6] (10 mg/kg/day intraperitoneal), “clearly reduced the levels of vimentin protein”. For the same molecule, the “caspase 3/7 activation” value in experiment [7] is given as “causes caspase 3/7 activation in a time-dependent manner”. Moreover, the “cellular distribution of vimentin” value in experiment [8] is recorded as “aggregated/localized in the perinuclear region of the cell”.
